Columns and labels:
[1] = test system: winter barley; test: Test E winter barley; format: in vivo, Hordeum vulgare; conditions: Preemergence
[2] = test system: Johnson grass; test: Test D Johnson grass; format: in vivo, Sorghum halepense; conditions: Preemergence, 0 to 100 scale
Method in brief: (§1)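 Values are visual plant-response ratings (0 no injury, 100 complete control) recorded 14 to 21 days after herbicide treatment, using a non-phytotoxic solvent mixture containing surfactant. Preemergence applications went to the surface of pots holding freshly sown seed in sandy loam.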

[3] = test system: wild oat; test: Test E wild oat; format: in vivo, Avena fatua; conditions: Preemergence
[4] = test system: rape; test: Test B pre/postemergence rape; format: in vivo, Brassica napus
Method in brief: (§2)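 Herbicidal effect was estimated by eye on a ten-point control scale after plants spent twelve to sixteen days in a greenhouse following soil or foliar treatment. Foliar sprays targeted plants at one to four leaves; all doses were formulated in a non-phytotoxic solvent with surfactant.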

[5] = test system: Italian ryegrass; test: Test E Italian ryegrass; format: in vivo, Lolium multiflorum; conditions: Preemergence
[6] = test system: morningglory; test: Test B pre/postemergence morningglory; format: in vivo, Ipomoea hederacea
Method in brief: as §2

[7] = test system: blackgrass; test: Test E blackgrass; format: in vivo, Alopecurus myosuroides; conditions: Preemergence
[8] = test system: green foxtail; test: Test E green foxtail; format: in vivo, Setaria viridis; conditions: Preemergence
[9] = test system: winter wheat; test: Test E winter wheat; format: in vivo, Triticum aestivum; conditions: Preemergence
[10] = test system: smallflower flatsedge; test: Test B flood test smallflower flatsedge; format: in vivo, Cyperus difformis
Method in brief: (§3)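 Plants were grown to the 2-leaf stage before treatment with test chemical, then held in a greenhouse for twelve to sixteen days. Injury was visually rated against untreated controls on a 0–10 scale, where 0 is no effect and 10 is complete control.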

[11] = test system: goosegrass; test: Test D goosegrass; format: in vivo, Eleusine indica; conditions: Preemergence, 0 to 100 scale
Method in brief: as §1

[12] = test system: bamyardgrass; test: Test B flood test barnyardgrass; format: in vivo, Echinochloa crus-galli
Method in brief: as §3

[13] = test system: winter wheat; test: Test E winter wheat; format: in vivo, Triticum aestivum; conditions: Postemergence; for Plant response rating, Wheat (winter): 0 to 100 scale
Method in brief: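 Plants were grown under normal greenhouse practice; for postemergence, in sandy loam soil mixed 60:40 with potting mix, treated at the 1- to 4-leaf stage. The compound was in a non-phytotoxic solvent carrying a surfactant. After roughly 21 to 28 days plants were scored visually against untreated plants.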

[14] = Rate 31 g/ha, 0 to 100 scale, 0 no effect, 100 complete control
[15] = Rate 62 g/ha, 0 to 100 scale, 0 no effect, 100 complete control
[16] = Rate 125 g/ha, 0 to 100 scale (0 no effect, 100 complete control)
[17] = Rate 500 g/ha, 0 to 100 scale where 0 is no effect and 100 is complete control
[18] = Rate 16 g/ha, 0 no injury, 100 complete control
[19] = Rate 32 g/ha, 0 no injury, 100 complete control
[20] = Rate 64 g/ha, 0 no injury, 100 complete control
[21] = Rate 125 g/ha, 0 no injury, 100 complete control
[22] = Postemergence, Rate 125 g/ha, scale of 0 to 10 where 0 is no effect and 10 is complete control
[23] = Preemergence, Rate 31 g/ha, visual rating, scale 0 to 10 (0 no effect, 10 complete control)
[24] = Preemergence, Rate 62 g/ha, scale 0 to 10 (0 no effect, 10 complete control)
[25] = Preemergence, Rate 125 g/ha, 0 is no effect, 10 is complete control
[26] = Preemergence, Rate 250 g/ha, scale 0 to 10, 0 is no effect, 10 is complete control
[27] = Preemergence, Rate 500 g/ha, scale 0 to 10 (0 no effect, 10 complete control)
[28] = Rate 31 g/ha, Postemergence, scale 0 to 10
[29] = Rate 62 g/ha, Postemergence, scale of 0 to 10 where 0 is no effect and 10 is complete control
[30] = Rate 250 g/ha, Postemergence, scale 0 to 10, 0 is no effect, 10 is complete control
[31] = Rate 500 g/ha, Postemergence, scale 0 to 10
[32] = Postemergence (flood test species), Rate 125 g/ha, scale of 0 to 10 where 0 is no effect and 10 is complete control
[33] = Rate 62 g/ha, Postemergence section, flood test species, scale of 0 to 10 where 0 is no effect and 10 is complete control
[34] = Rate 62 g/ha, headed Pre-emergence (flood test species), scale 0 to 10 (0 no effect, 10 complete control)
[35] = Rate 125 g/ha, Pre-emergence, flood test species, scale 0 to 10 where 0 is no effect and 10 is complete control
[36] = Rate 250 g/ha, Postemergence (flood test), scale 0 to 10, 0 is no effect, 10 is complete control
[37] = Rate 250 g/ha, Pre-emergence, flood-test species, scale 0 to 10, 0 is no effect, 10 is complete control

C=CCn1c(=O)on(C(=O)N(c2ccc(F)cc2)C(C)C)c1=O [Compound 146]
Plant response rating, Barley (winter) [1, 14]: 20
Plant response rating, Barley (winter) [1, 15]: 10
Plant response rating, Barley (winter) [1, 16]: 10
Barley (winter) plant response rating (0 to 100 scale) ([1]; Rate 250 g/ha): 10
Plant response rating, Barley (winter) [1, 17]: 95
Plant response rating Johnsongrass [2, 18]: 60
Plant response rating Johnsongrass [2, 19]: 60
Plant response rating Johnsongrass [2, 20]: 60
Plant response rating Johnsongrass [2, 21]: 80
Plant response rating Johnsongrass ([2]; Rate 250 g/ha): 90
Plant response rating Johnsongrass ([2]; Rate 500 g/ha): 95
Plant response rating, Wild oat [3, 14]: 40
Plant response rating, Wild oat [3, 15]: 25
Plant response rating, Wild oat [3, 16]: 30
Wild oat plant response rating (0 to 100 scale) ([3]; Rate 250 g/ha): 50
Plant response rating, Wild oat [3, 17]: 85
Rape plant response rating [4, 22]: 2
Rape plant response rating [4, 23]: 0
Rape plant response rating [4, 24]: 2
Rape plant response rating (0 to 10 scale) [4, 25]: 10
Rape plant response rating [4, 26]: 10
Rape plant response rating [4, 27]: 10
Rape plant response rating [4, 28]: 0
Rape plant response rating [4, 29]: 2
Plant response rating, Rape [4, 30]: 3
Rape plant response rating [4, 31]: 5
Plant response rating, I. Ryegrass [5, 14]: 50
Plant response rating, I. Ryegrass [5, 15]: 40
Plant response rating, I. Ryegrass [5, 16]: 50
I. Ryegrass plant response rating (0 to 100 scale) ([5]; Rate 250 g/ha): 60
Plant response rating, I. Ryegrass [5, 17]: 90
Morningglory plant response rating [6, 22]: 5
Morningglory plant response rating [6, 23]: 0
Morningglory plant response rating [6, 24]: 2
Morningglory plant response rating (0 to 10 scale) [6, 25]: 3
Morningglory plant response rating [6, 26]: 3
Morningglory plant response rating [6, 27]: 4
Morningglory plant response rating [6, 28]: 2
Morningglory plant response rating [6, 29]: 3
Plant response rating, Morningglory [6, 30]: 8
Morningglory plant response rating [6, 31]: 9
Plant response rating, Blackgrass [7, 14]: 20
Plant response rating, Blackgrass [7, 15]: 70
Plant response rating, Blackgrass [7, 16]: 85
Blackgrass plant response rating (0 to 100 scale) ([7]; Rate 250 g/ha): 90
Plant response rating, Blackgrass [7, 17]: 70
Plant response rating, Green foxtail [8, 14]: 50
Plant response rating, Green foxtail [8, 15]: 55
Plant response rating, Green foxtail [8, 16]: 50
Green foxtail plant response rating (0 to 100 scale) ([8]; Rate 250 g/ha): 65
Plant response rating, Green foxtail [8, 17]: 100
Plant response rating, Wheat (winter) [9, 14]: 20
Plant response rating, Wheat (winter) [9, 15]: 0
Plant response rating, Wheat (winter) [9, 16]: 10
Wheat (winter) plant response rating (0 to 100 scale) ([9]; Rate 250 g/ha): 0
Plant response rating, Wheat (winter) [9, 17]: 100
S. Flatsedge plant response rating [10, 32]: 0
S. Flatsedge plant response rating [10, 33]: 0
S. Flatsedge plant response rating [10, 34]: 0
S. Flatsedge plant response rating [10, 35]: 0
Plant response rating, S. Flatsedge [10, 36]: 3
S. Flatsedge plant response rating [10, 37]: 0
S. Flatsedge plant response rating ([10]; Rate 500 g/ha, listed under Postemergence (flood test species), scale 0 to 10): 9
S. Flatsedge plant response rating ([10]; Rate 500 g/ha, Pre-emergence, flood test species, scale 0 to 10 (0 no effect, 10 complete control)): 1
Plant response rating, Goosegrass [11, 18]: 90
Plant response rating, Goosegrass [11, 19]: 98
Plant response rating, Goosegrass [11, 20]: 100
Plant response rating, Goosegrass [11, 21]: 100
Plant response rating, Goosegrass ([11]; Rate 250 g/ha): 100
Plant response rating, Goosegrass ([11]; Rate 500 g/ha): 100
Barnyardgrass plant response rating [12, 32]: 0
Barnyardgrass plant response rating ([12]; Rate 31 g/ha, Postemergence section (flood test species), scale 0 to 10): 0
Barnyardgrass plant response rating [12, 33]: 0
Barnyardgrass plant response rating [12, 34]: 0
Barnyardgrass plant response rating [12, 35]: 0
Plant response rating, Barnyardgrass [12, 36]: 1
Barnyardgrass plant response rating [12, 37]: 1
Plant response rating, Barnyardgrass ([12]; Rate 500 g/ha, headed Pre-emergence (flood test species), scale 0 to 10 (0 no effect, 10 complete control)): 5
Barnyardgrass plant response rating ([12]; Rate 500 g/ha, listed under Postemergence (flood test species), scale 0 to 10, 0 no effect, 10 complete control): 9
Plant response rating, Wheat (winter) ([13]; Rate 31 g/ha, 0 no effect, 100 complete control): 30
Plant response rating, Wheat (winter) ([13]; Rate 62 g/ha): 20
Plant response rating, Wheat (winter) ([13]; Rate 125 g/ha): 40
Plant response rating, Wheat (winter) ([13]; Rate 500 g/ha, 0 no effect, 100 complete control): 20
Wheat (winter) plant response rating ([13]; Rate 250 g/ha, 0 to 100 scale where 0 is no effect and 100 is complete control): 60

From patent US6737383B1, “Herbicidal oxadiazolidines” (priority 1999, dated 2004)
